PMC9579956 (RSC Medicinal Chemistry, 2022)

Molecular target: Mycobacterium thermoresistible (Mtr) LpqY (Mycolicibacterium thermoresistibile, UniProt G7CES0)
Assay type: binding
Settings: single dose MST screen against LpqY

Chain of Mycobacterium thermoresistible (Mtr) LpqY (G7CES0 29-471): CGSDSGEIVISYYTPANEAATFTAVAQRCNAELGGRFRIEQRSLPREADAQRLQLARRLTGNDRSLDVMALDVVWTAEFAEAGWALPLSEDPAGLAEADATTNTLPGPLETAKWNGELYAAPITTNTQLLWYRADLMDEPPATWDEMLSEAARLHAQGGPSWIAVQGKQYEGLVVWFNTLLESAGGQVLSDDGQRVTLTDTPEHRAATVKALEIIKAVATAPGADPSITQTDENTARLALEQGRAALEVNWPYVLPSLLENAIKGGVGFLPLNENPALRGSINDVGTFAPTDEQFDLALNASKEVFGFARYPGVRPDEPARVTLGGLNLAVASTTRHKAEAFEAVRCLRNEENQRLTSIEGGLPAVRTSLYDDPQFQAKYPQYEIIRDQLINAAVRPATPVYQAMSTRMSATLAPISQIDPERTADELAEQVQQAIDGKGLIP

SMILES: O[C@@H](c1cc(C(F)(F)F)nc2c(C(F)(F)F)cccc12)[C@H]1CCCCN1 [MMV000016]
- Pathogen Box screen signal/noise ratio: 1.8

SMILES: N=C(N)c1ccc(OCCCCCOc2ccc(C(=N)N)cc2)cc1 [MMV000062]
- Pathogen Box screen signal/noise ratio: 0.3

SMILES: CCN(CC)CCCCCCNc1cc(OC)cc2c(C)ccnc12 [MMV000063]
- Pathogen Box screen signal/noise ratio: 2.2

SMILES: O=S(=O)(c1ccc(Cl)cc1)N1CCN(C(=S)NCc2ccco2)CC1 [MMV000858]
- Pathogen Box screen signal/noise ratio: 2.2

SMILES: COc1cccc2c(C)nc(N=C(N)N)nc12 [MMV000907]
- Pathogen Box screen signal/noise ratio: 1.1

SMILES: CCCS(=O)(=O)N1CCC(CO)(Cc2ccccc2C(F)(F)F)CC1 [MMV001059]
- Pathogen Box screen signal/noise ratio: 0.0926

SMILES: COC(=O)C1=C(C)NC(C)=C(C(=O)OC(C)C)C1c1cccc2nonc12 (centres unmarked) [MMV001493]
- Pathogen Box screen signal/noise ratio: 1.1

SMILES: CC1CS(=O)(=O)CCN1/N=C/c1ccc([N+](=O)[O-])o1 (centres unmarked) [MMV001499]
- Pathogen Box screen signal/noise ratio: 2.4

SMILES: CNCCC(Oc1ccc(C(F)(F)F)cc1)c1ccccc1 (centres unmarked) [MMV001561]
- Pathogen Box screen signal/noise ratio: 0.9

SMILES: NCCCC(N)(C(=O)O)C(F)F (centres unmarked) [MMV001625]
- Pathogen Box screen signal/noise ratio: 0.316

SMILES: O=C(C1CCCCC1)N1CC(=O)N2CCc3ccccc3C2C1 (centres unmarked) [MMV002529]
- Pathogen Box screen signal/noise ratio: 0.167

SMILES: CCN(CC)C(=O)N1CCN(C)CC1 [MMV002816]
- Pathogen Box screen signal/noise ratio: 1.5

SMILES: Oc1c(I)cc(I)c2cccnc12 [MMV002817]
- Pathogen Box screen signal/noise ratio: 0.152

SMILES: COC(=O)Nc1nc2cc(C(=O)c3ccccc3)ccc2[nH]1 [MMV003152]
- Pathogen Box screen signal/noise ratio: 1.9

SMILES: CN1CCCN(C(c2ccccc2)c2ccc(Cl)cc2)CC1 (centres unmarked) [MMV004168]
- Pathogen Box screen signal/noise ratio: 0.9

SMILES: O=C1Nc2ccc(Br)cc2C12NCCc1c2[nH]c2ccccc12 (centres unmarked) [MMV006239]
- Pathogen Box screen signal/noise ratio: 2.0

SMILES: Cc1ccc2[nH]c3c(NCCN(C)C)ncnc3c2c1 [MMV006372]
- Pathogen Box screen signal/noise ratio: 0.333

SMILES: COc1cc2ncnc(NC3CCN(Cc4ccccc4)CC3)c2cc1OC [MMV006741]
- Pathogen Box screen signal/noise ratio: 4.3

SMILES: Cc1cc(Cl)c(S(=O)(=O)N2CCCC2)cc1OCC(=O)NC1CCCCC1 [MMV006833]
- Pathogen Box screen signal/noise ratio: 1.6

SMILES: CN(C)c1cc(NC(=O)Nc2ccccc2)c2ccccc2n1 [MMV006901]
- Pathogen Box screen signal/noise ratio: 1.2

SMILES: Cc1cc(NC(=O)c2ccc(S(=O)(=O)N(Cc3ccccc3)C(C)C)cc2)no1 [MMV007133]
- Pathogen Box screen signal/noise ratio: 0.4

SMILES: COc1cc(OC)cc(C(=O)NCC2Cc3cc(Cl)cc(-c4ccncc4)c3O2)c1 (centres unmarked) [MMV007471]
- Pathogen Box screen signal/noise ratio: 0.2

SMILES: Cc1cc(C)n(-c2ccc(NC(=O)C3CCN(Cc4cnc(C)s4)CC3)cc2)n1 [MMV007625]
- Pathogen Box screen signal/noise ratio: 1.4

SMILES: CCOc1ccc(-c2nc(NC(=O)CS(=O)(=O)c3ccccc3)sc2C)cc1 [MMV007638]
- Pathogen Box screen signal/noise ratio: 0.254

SMILES: O=C(NC1CC1)c1ccc(CSCc2ccccc2Cl)o1 [MMV007803]
- Pathogen Box screen signal/noise ratio: 0.148

SMILES: Nc1ccc(C(=O)Nc2ccc(-c3nc4ccccc4o3)cc2)cc1 [MMV007920]
- Pathogen Box screen signal/noise ratio: 0.9

SMILES: COc1ccc(CN2CCOc3ccc(C(C)(O)CN(C)C)cc3C2)cc1C (centres unmarked) [MMV008439]
- Pathogen Box screen signal/noise ratio: 0.222

SMILES: Cc1cc(C(=O)Nc2cnn(Cc3ccc(Cl)cc3Cl)c2)no1 [MMV009054]
- Pathogen Box screen signal/noise ratio: 0.179

SMILES: O=C(C1CCN(c2nnnn2-c2ccccc2)CC1)N1CCc2ccccc2C1 [MMV009135]
- Pathogen Box screen signal/noise ratio: 1.2

SMILES: COc1ccc(-c2cnc3ccc(NCc4ccc(S(N)(=O)=O)cc4)nn23)cn1 [MMV010545]
- Pathogen Box screen signal/noise ratio: 0.463

SMILES: COc1cc(-c2cc(-c3ccc(S(C)(=O)=O)cc3)cnc2N)ccc1O [MMV010576]
- Pathogen Box screen signal/noise ratio: 3.1

SMILES: c1csc(-c2cnc3sc(NCC4CCOCC4)nn23)c1 [MMV010764]
- Pathogen Box screen signal/noise ratio: 0.667

SMILES: Cc1cc(Nc2ccc(C(F)(F)F)cc2)n2ccnc2n1 [MMV011229]
- Pathogen Box screen signal/noise ratio: 0.2

SMILES: COc1ccc(CCN2CCC(NCc3cccc(N(C)C)c3)CC2)cc1 [MMV011511]
- Pathogen Box screen signal/noise ratio: 0.8

SMILES: NCC(=O)N1CCn2c(nc(-c3ccccc3)c2Nc2ccc3c(c2)OCO3)C1 [MMV011691]
- Pathogen Box screen signal/noise ratio: 1.3

SMILES: FC(F)(F)c1cnc(Sc2nnc(-c3ccncc3)o2)c(Cl)c1 [MMV011765]
- Pathogen Box screen signal/noise ratio: 1.6

SMILES: Cc1ccc(NC(=O)c2nc[nH]c2C(=O)Nc2nc3ccccc3[nH]2)c(C)c1 [MMV011903]
- Pathogen Box screen signal/noise ratio: 1.4

SMILES: Cc1nc2ccccn2c1C(=O)NCc1ccc(Cl)cc1 [MMV012074]
- Pathogen Box screen signal/noise ratio: 1.0

SMILES: Cc1cc(Nc2ccncc2)n2nc(C)c(-c3ccccc3Cl)c2n1 [MMV016136]
- Pathogen Box screen signal/noise ratio: 1.7

SMILES: Cc1ccc(-c2cc(C(=O)Nc3cccnc3)c3cc(Br)ccc3n2)cc1 [MMV016838]
- Pathogen Box screen signal/noise ratio: 0.75

SMILES: Cc1cc(C)n2nc(C(=O)Nc3cc(C(F)(F)F)ccc3N3CCOCC3)nc2n1 [MMV019087]
- Pathogen Box screen signal/noise ratio: 1.2

SMILES: Cc1ccc2c(c1C)NC(=O)C21NN=C(c2ccccc2)S1 (centres unmarked) [MMV019189]
- Pathogen Box screen signal/noise ratio: 1.4

SMILES: COc1ccc(C2CC(c3cccs3)=NN2C(=O)c2ccco2)cc1OC (centres unmarked) [MMV019234]
- Pathogen Box screen signal/noise ratio: 2.1

SMILES: CCC(NC(=O)c1ccccc1NC(=O)c1ccc(C)cc1)C(=O)OC (centres unmarked) [MMV019551]
- Pathogen Box screen signal/noise ratio: 0.267

SMILES: CCN(CC)S(=O)(=O)c1ccc(Cl)c(C(=O)Nc2ccc3nc(C)sc3c2)c1 [MMV019721]
- Pathogen Box screen signal/noise ratio: 1.3

SMILES: Cc1ccc(S(=O)(=O)N2CCN(C(=O)c3cc(-c4ccccc4)[nH]n3)CC2)cc1 [MMV019742]
- Pathogen Box screen signal/noise ratio: 0.286

SMILES: CCOc1ccccc1C(=O)Nc1cccc(-c2nc3ncccn3c2C)c1 [MMV019790]
- Pathogen Box screen signal/noise ratio: 1.6

SMILES: Cc1ccc2cc(C3NC(=O)c4ccccc4N3)c(Cl)nc2c1 (centres unmarked) [MMV019807]
- Pathogen Box screen signal/noise ratio: 0.7

SMILES: O=C(Nc1ccnc(-c2cccnc2)n1)c1cc(C(F)(F)F)cc(C(F)(F)F)c1 [MMV019838]
- Pathogen Box screen signal/noise ratio: 2.8

SMILES: Cc1nn(C)cc1C(C)Nc1nncc(-c2ccc(C(F)(F)F)cc2)n1 (centres unmarked) [MMV019993]
- Pathogen Box screen signal/noise ratio: 0.25

SMILES: COc1cccc(CC(=O)N2CCC(n3c(C)nc4ccc(F)cc43)CC2)c1 [MMV020081]
- Pathogen Box screen signal/noise ratio: 0.152

SMILES: CC1CC1C(=O)NC1CCN(CC2(c3ccccc3)CCCCC2)CC1 (centres unmarked) [MMV020120]
- Pathogen Box screen signal/noise ratio: 1.1

SMILES: CNC(=O)c1cc(S(=O)(=O)N2CCN(c3ccccn3)CC2)cs1 [MMV020136]
- Pathogen Box screen signal/noise ratio: 0.5

SMILES: Cc1cc(C(=O)Nc2ccc(-c3ccccc3)cc2)no1 [MMV020152]
- Pathogen Box screen signal/noise ratio: 0.742

SMILES: CC(C)NCC(=O)Nc1cccc(C(=O)Nc2cccc(C(F)(F)F)c2)c1 [MMV020165]
- Pathogen Box screen signal/noise ratio: 4.3

SMILES: Cc1ccc(NC(=O)c2cc(S(=O)(=O)NC(C)(C)C)ccc2C)nc1 [MMV020289]
- Pathogen Box screen signal/noise ratio: 1.4

SMILES: CC(C(=O)N1CCCC1)N1CCN(S(=O)(=O)c2ccc(C(C)(C)C)cc2)CC1 (centres unmarked) [MMV020291]
- Pathogen Box screen signal/noise ratio: 1.8

SMILES: Cc1nnc(NC(=O)c2cn(-c3ccccc3)nc2-c2ccccc2C)o1 [MMV020320]
- Pathogen Box screen signal/noise ratio: 0.6

SMILES: CC1CCCN(C(=O)C(C)Nc2cc(Cl)ccc2N2CCOCC2)C1 (centres unmarked) [MMV020388]
- Pathogen Box screen signal/noise ratio: 0.556

SMILES: CC(C)C(C(=O)Nc1ccc(S(=O)(=O)N(C)C)cc1)c1ccc(Cl)cc1 (centres unmarked) [MMV020391]
- Pathogen Box screen signal/noise ratio: 0.25

SMILES: Cc1ccc(Oc2ccc(NC(=O)CNc3ccccc3N3CCCC3=O)cc2)cc1 [MMV020512]
- Pathogen Box screen signal/noise ratio: 3.4

SMILES: COc1ccccc1CNC(=O)c1cc(C2CC2)nc2c1cnn2C(C)C [MMV020517]
- Pathogen Box screen signal/noise ratio: 2.3

SMILES: Cc1cc2ccccc2n1CC(=O)N1CC(C(=O)N2CCCCC2)Oc2ccccc21 (centres unmarked) [MMV020520]
- Pathogen Box screen signal/noise ratio: 2.0

SMILES: O=C(NC1CC1)c1ccc(N2CCOc3ccc(Cl)cc32)s1 [MMV020537]
- Pathogen Box screen signal/noise ratio: 1.9

SMILES: CC(C)C(NC(=O)Cc1cccc2ccccc12)C(=O)Nc1cccc(C#N)c1 (centres unmarked) [MMV020591]
- Pathogen Box screen signal/noise ratio: 0.25

SMILES: Cc1noc(C)c1C(=O)N1CCCC(c2[nH]c3c(C)cccc3c2-c2ccncc2)C1 (centres unmarked) [MMV020623]
- Pathogen Box screen signal/noise ratio: 2.5

SMILES: COc1ccc(-c2cncc3ccc(C(=O)NCCCn4ccnc4)nc23)cc1 [MMV020670]
- Pathogen Box screen signal/noise ratio: 2.7

SMILES: COc1ccc(Cl)cc1NC(=O)CN(C)C(=O)c1cnn(-c2ccccc2)n1 [MMV020710]
- Pathogen Box screen signal/noise ratio: 1.8

SMILES: CC(C)(C)c1cc(C(=O)Nc2cccnc2)cc(C(=O)Nc2cccnc2)c1 [MMV020982]
- Pathogen Box screen signal/noise ratio: 1.3

SMILES: c1ccc(-c2nc(NC3CCCCC3)cc(C3CC3)n2)nc1 [MMV021013]
- Pathogen Box screen signal/noise ratio: 0.0694

SMILES: CO/C=C(/C(=O)OC)c1ccccc1Oc1cc(Oc2ccccc2C#N)ncn1 [MMV021057]
- Pathogen Box screen signal/noise ratio: 0.6

SMILES: Cc1cc(NCC(C)C)c2n[nH]c(-c3ccccc3)c2n1 [MMV021375]
- Pathogen Box screen signal/noise ratio: 0.9

SMILES: Cc1cc(NCCc2ccccc2)nc(NC(=N)Nc2ccc(Cl)cc2)n1 [MMV021660]
- Pathogen Box screen signal/noise ratio: 1.6

SMILES: CN1CCC(NCc2cccc(-c3ccc(S(=O)(=O)NCc4ccccc4)cc3)c2)CC1 [MMV022029]
- Pathogen Box screen signal/noise ratio: -0.0167
